Reference: patent US20260042731A1, “(2,4-DICHLOROPHENOXY)ACETIC ACID ANALOGS” (CORTEVA AGRISCIENCE LLC, priority 2022, published 2026)
Where two headings read alike, the source gives them in different places.

What was measured:
[1] = system: weeds (ABUTH, AMATA, AMBEL, CHEAL, ERICA); assay: Postemergence herbicide evaluation, overall average % weed control across ABUTH, AMATA, AMBEL, CHEAL, ERICA; type: in vivo; settings: post-emergence, average over the five weeds, read-out: Overall Ave % Weed Control; for pest or weed control at 280 g/ha: 280 g ae/ha; for pest or weed control at 560 g/ha: 560 g ae/ha
[2] = system: Ambrosia artemisiifolia (AMBEL), common ragweed; assay: Postemergence herbicide evaluation, growth of Ambrosia artemisiifolia (AMBEL); type: in vivo; settings: Ambrosia artemisiifolia, post-emergence, percent reduction in plant size relative to untreated control, read-out: AVE. AMBEL; for pest or weed control at 280 g/ha: 280 g ae/ha; for pest or weed control at 560 g/ha: 560 g ae/ha
[3] = system: Abutilon theophrasti (ABUTH), velvetleaf; assay: Postemergence herbicide evaluation, growth of Abutilon theophrasti (ABUTH); type: in vivo; settings: Abutilon theophrasti, post-emergence, percent reduction in plant size relative to untreated control, read-out: AVE. ABUTH; for pest or weed control at 280 g/ha: 280 g ae/ha; for pest or weed control at 560 g/ha: 560 g ae/ha
[4] = system: Common Lambsquarters (CHEAL); assay: Greenhouse post-emergence mixture trials, percent visual control; type: in vivo; settings: CHEAL, 21 DAA; for pest or weed control at 560 g/ha / pest or weed control at 1120 g/ha: Chenopodium album, post-emergence, 504 h, no mixing partner; for pest or weed control at 1120 g/ha: read-out: % Control
[5] = Volatility of compounds measured by thermogravimetric analysis (TGA); type: physicochemical
[6] = system: glyphosate resistant Conyza canadensis (L.) (ERICA), horseweed; assay: Postemergence herbicide evaluation, growth of Conyza canadensis (ERICA); type: in vivo; settings: Erigeron canadensis, post-emergence, percent reduction in plant size relative to untreated control, read-out: Ave. ERICA; for pest or weed control at 280 g/ha: 280 g ae/ha; for pest or weed control at 560 g/ha: 560 g ae/ha
[7] = system: Chenopodium album (CHEAL), common lambsquarters; assay: Postemergence herbicide evaluation, growth of Chenopodium album (CHEAL); type: in vivo; settings: Chenopodium album, post-emergence, percent reduction in plant size relative to untreated control, read-out: Ave. CHEAL; for pest or weed control at 280 g/ha: 280 g ae/ha; for pest or weed control at 560 g/ha: 560 g ae/ha
[8] = system: Amaranthus rudis (AMATA), tall water hemp; assay: Postemergence herbicide evaluation, growth of Amaranthus rudis (AMATA); type: in vivo; settings: Amaranthus tuberculatus, post-emergence, percent reduction in plant size relative to untreated control, read-out: Ave. AMATA; for pest or weed control at 280 g/ha: 280 g ae/ha; for pest or weed control at 560 g/ha: 560 g ae/ha
Velvetleaf (ABUTH) = assay: Greenhouse post-emergence mixture trials, percent visual control; type: in vivo; settings: ABUTH, 21 DAA; for pest or weed control at 560 g/ha / pest or weed control at 1120 g/ha: Abutilon theophrasti, post-emergence, 504 h, no mixing partner; for pest or weed control at 1120 g/ha: read-out: % Control
Corn (ZEAMX) = assay: as above; type: in vivo; settings: ZEAMX, 21 DAA
[9] = Trial Bridge 2, compound 560 g ae/ha + Saflufenacil 25 g ai or ae/ha
[10] = Trial Bridge 2, compound 560 g ae/ha + Saflufenacil 75 g ai or ae/ha
[11] = Trial Bridge 2, compound 560 g ae/ha + Trifludimoxazin 12.5 g ai or ae/ha
[12] = Trial Bridge 2, compound 560 g ae/ha + Trifludimoxazin 50 g ai or ae/ha
[13] = Trial Bridge 2, compound 1120 g ae/ha + Saflufenacil 25 g ai or ae/ha
[14] = Trial Bridge 2, compound 1120 g ae/ha + Saflufenacil 75 g ai or ae/ha
[15] = Trial Bridge 2, compound 1120 g ae/ha + Trifludimoxazin 50 g ai or ae/ha
[16] = Trial Bridge 2, compound 560 g ae/ha
[17] = Trial Bridge 2, compound 1120 g ae/ha
[18] = Trial Bridge 1, compound 560 g ae/ha + Glufosinate 600 g ai or ae/ha

O=C(COc1ccc(Cl)cc1Cl)NNC(=O)c1ccccc1 [Compound D10]
73%: pest or weed control at 280 g/ha ([2]; 168 h, 7 DAA) | pest or weed control at 280 g/ha ([7]; 504 h, 21 DAA)
0.3 µg/min: TGA Data (rate of weight loss, volatility) [5]
88%: pest or weed control at 280 g/ha ([3]; 168 h, 7 DAA) | pest or weed control at 560 g/ha ([6]; 336 h, 14 DAA)
93%: pest or weed control at 280 g/ha ([2]; 504 h, 21 DAA) | pest or weed control at 280 g/ha ([6]; 504 h, 21 DAA)
63%: pest or weed control at 280 g/ha ([6]; 168 h, 7 DAA) | pest or weed control at 280 g/ha ([7]; 168 h, 7 DAA)
5%: plant injury at 560 g/ha (Corn (ZEAMX); Zea mays, post-emergence, 504 h, compound 560 g ae/ha, no mixing partner, Trial Bridge 3)
70%: % Control (Corn (ZEAMX); Trial Bridge 1, compound 560 g ae/ha + Glyphosate 1120 g ai or ae/ha, single replicate)
92%: pest or weed control at 560 g/ha ([1]; 336 h, 14 DAA)
87%: pest or weed control at 280 g/ha ([1]; 504 h, 21 DAA)
84%: pest or weed control at 280 g/ha ([1]; 336 h, 14 DAA)
100%: pest or weed control at 560 g/ha ([2]; 504 h, 21 DAA) | pest or weed control at 560 g/ha ([3]; 504 h, 21 DAA) | % Control [4, 9] | % Control [4, 10] | % Control [4, 11] | % Control [4, 12] | % Control [4, 13] | % Control [4, 14] | % Control ([4]; Trial Bridge 2, compound 1120 g ae/ha + Trifludimoxazin 12.5 g ai or ae/ha) | % Control [4, 15] | % Control ([4]; Trial Bridge 3, compound 560 g ae/ha + Sulfentrazone 130 g ai/ha) | % Control ([4]; Trial Bridge 3, compound 560 g ae/ha + Sulfentrazone 347 g ai/ha) | % Control ([4]; Trial Bridge 3, compound 1120 g ae/ha + Sulfentrazone 130 g ai/ha) | % Control ([4]; Trial Bridge 3, compound 1120 g ae/ha + Sulfentrazone 347 g ai/ha) | pest or weed control at 1120 g/ha ([4]; Trial Bridge 3, compound 1120 g ae/ha) | % Control [4, 18] | % Control ([4]; Trial Bridge 1, compound 560 g ae/ha + Mesotrione 150 g ai or ae/ha) | % Control ([4]; Trial Bridge 1, compound 1120 g ae/ha + Mesotrione 150 g ai or ae/ha) | % Control (Velvetleaf (ABUTH); compound 1120 g ae/ha + Sulfentrazone 130 g ai/ha, Trial Bridge 3) | % Control (Velvetleaf (ABUTH); compound 1120 g ae/ha + Sulfentrazone 347 g ai/ha, Trial Bridge 3) | pest or weed control at 1120 g/ha (Velvetleaf (ABUTH); Trial Bridge 1 Trt 3, D10 1120 g ae/ha) | pest or weed control at 560 g/ha (Velvetleaf (ABUTH); [16]) | pest or weed control at 1120 g/ha (Velvetleaf (ABUTH); [17]) | % Control (Velvetleaf (ABUTH); [18]) | % Control (Velvetleaf (ABUTH); Trial Bridge 1 Trt 5, D10 560 g ae/ha + diclosulam 35 g ai or ae/ha) | % Control (Velvetleaf (ABUTH); Trial Bridge 1 Trt 6, D10 1120 g ae/ha + diclosulam 35 g ai or ae/ha) | % Control (Velvetleaf (ABUTH); Trial Bridge 1 Trt 8, D10 560 g ae/ha + Arylex 5 g ai or ae/ha) | % Control (Velvetleaf (ABUTH); Trial Bridge 1 Trt 9, D10 1120 g ae/ha + Arylex 5 g ai or ae/ha) | % Control (Velvetleaf (ABUTH); Trial Bridge 1 Trt 11, D10 560 g ae/ha + Mesotrione 150 g ai or ae/ha) | % Control (Velvetleaf (ABUTH); Trial Bridge 1 Trt 12, D10 1120 g ae/ha + Mesotrione 150 g ai or ae/ha) | % Control (Velvetleaf (ABUTH); Trial Bridge 1 Trt 14, D10 560 g ae/ha + Glyphosate 1120 g ai or ae/ha) | % Control (Velvetleaf (ABUTH); Trial Bridge 1 Trt 15, D10 1120 g ae/ha + Glyphosate 1120 g ai or ae/ha) | % Control (Velvetleaf (ABUTH); [9]) | % Control (Velvetleaf (ABUTH); [10]) | % Control (Velvetleaf (ABUTH); [11]) | % Control (Velvetleaf (ABUTH); [12]) | % Control (Velvetleaf (ABUTH); [13]) | % Control (Velvetleaf (ABUTH); [14]) | % Control (Velvetleaf (ABUTH); [15])
94%: pest or weed control at 560 g/ha ([1]; 504 h, 21 DAA) | pest or weed control at 280 g/ha ([8]; 336 h, 14 DAA)
96%: pest or weed control at 560 g/ha ([3]; 336 h, 14 DAA) | pest or weed control at 560 g/ha ([8]; 336 h, 14 DAA)
65%: pest or weed control at 560 g/ha ([6]; 168 h, 7 DAA) | pest or weed control at 560 g/ha ([7]; 168 h, 7 DAA)
80%: pest or weed control at 560 g/ha ([8]; 168 h, 7 DAA)
97%: pest or weed control at 560 g/ha ([2]; 336 h, 14 DAA)
71%: pest or weed control at 280 g/ha ([1]; 168 h, 7 DAA)
83%: pest or weed control at 560 g/ha ([2]; 168 h, 7 DAA) | pest or weed control at 560 g/ha ([3]; 168 h, 7 DAA) | pest or weed control at 280 g/ha ([6]; 336 h, 14 DAA) | pest or weed control at 560 g/ha ([7]; 336 h, 14 DAA)
91%: pest or weed control at 280 g/ha ([2]; 336 h, 14 DAA) | pest or weed control at 280 g/ha ([3]; 504 h, 21 DAA)
75%: pest or weed control at 560 g/ha ([1]; 168 h, 7 DAA) | % Control (Corn (ZEAMX); Trial Bridge 1, compound 560 g ae/ha + Glyphosate 1120 g ai or ae/ha)
95%: pest or weed control at 560 g/ha [4, 16] | pest or weed control at 1120 g/ha [4, 17] | pest or weed control at 560 g/ha ([4]; Trial Bridge 3, compound 560 g ae/ha) | pest or weed control at 560 g/ha ([4]; Trial Bridge 1, compound 560 g ae/ha) | pest or weed control at 1120 g/ha ([4]; Trial Bridge 1, compound 1120 g ae/ha) | % Control ([4]; Trial Bridge 1, compound 1120 g ae/ha + Arylex 5 g ai or ae/ha) | pest or weed control at 1120 g/ha (Velvetleaf (ABUTH); compound 1120 g ae/ha, Trial Bridge 3)
99%: pest or weed control at 560 g/ha ([6]; 504 h, 21 DAA) | pest or weed control at 560 g/ha (Velvetleaf (ABUTH); Trial Bridge 1 Trt 2, D10 560 g ae/ha)
68%: pest or weed control at 280 g/ha ([7]; 336 h, 14 DAA) | pest or weed control at 280 g/ha ([8]; 168 h, 7 DAA)
85%: pest or weed control at 280 g/ha ([3]; 336 h, 14 DAA) | pest or weed control at 560 g/ha ([7]; 504 h, 21 DAA) | pest or weed control at 280 g/ha ([8]; 504 h, 21 DAA) | pest or weed control at 560 g/ha ([8]; 504 h, 21 DAA) | pest or weed control at 560 g/ha (Velvetleaf (ABUTH); compound 560 g ae/ha, Trial Bridge 3)
10%: % Control (Corn (ZEAMX); Trial Bridge 1, compound 1120 g ae/ha, no mixing partner, single replicate) | plant injury at 1120 g/ha (Corn (ZEAMX); Zea mays, post-emergence, 504 h, Trial Bridge 1, compound 1120 g ae/ha, no mixing partner, single replicate)
